No end group written: not given here. Bounds are passed on as bounds.

Among the targets are HLA-DR DRB3*0101 (DR52) (Homo sapiens, UniProt P01903+P79483); HLA-DR DRB1*0301 (DR3) (Homo sapiens, UniProt P01903+P01911, A100K/A102G/A103R/A169T/F55Y/I96L/K41T/L162R/M171V/P40S/Q125H/Q178H/Q39Y/R42S/S66N/T106N/T262R/W38E/Y61H); HLA-DR DRB1*0802 (DR8) (Homo sapiens, UniProt P01903+P01911, A100R/A103L/A169T/F76Y/H45Y/I96F/K41T/L162R/M171V/P40S/Q125H/Q178H/Q39Y/Q99D/R218S/R42G/S66Y/V115G/W38E).

Holding throughout (assay): biochemical
What all share (format): binding

In another experiment the target is HLA-DR DRB1*1101 (DR11) (Homo sapiens, UniProt P01903+P01911, A100R/A169T/A87E/I96F/K41T/L162R/M171V/P40S/Q125H/Q178H/Q39Y/Q99D/R42S/S66Y/T262R/V115G/W38E). The settings on record: DRB1 *1101.
Sequence of HLA-DR DRB1*1101 (DR11) (P01903 26-254 limits assumed, other chains not shown): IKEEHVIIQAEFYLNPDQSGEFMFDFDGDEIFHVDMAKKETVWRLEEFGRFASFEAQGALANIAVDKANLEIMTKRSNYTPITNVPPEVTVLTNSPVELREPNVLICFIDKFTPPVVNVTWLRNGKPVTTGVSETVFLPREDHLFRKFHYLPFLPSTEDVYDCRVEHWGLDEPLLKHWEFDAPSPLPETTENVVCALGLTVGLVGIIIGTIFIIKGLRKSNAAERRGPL
The next experiment addresses HLA-DR DRB1*0701 (DR7) (Homo sapiens, UniProt P01903+P01911, A100R/A102G/A103Q/D57E/D86V/E43K/F76Y/K127E/L162R/M171V/P40G/Q125H/Q99D/R33Q/R42Y/R54Q/S133A/S66F/T210M/V115G/Y107V/Y59L/Y89S). As to conditions: DRB1 *0701.
Another experiment deals with HLA-DR DRB1*0901 (DR9) (Homo sapiens, UniProt P01903+P01911, A100R/A103E/D57H/D86V/F55Y/F60I/F76Y/I96F/K127E/L162R/M171V/P40D/Q125H/Q99R/R33Q/R42F/S133A/S66N/T210M/V115G/W38K/Y107V/Y59G/Y89S). The settings on record: DRB1 *0901.
The target in a further experiment is HLA-DR DRB5*0101 (DR51) (Homo sapiens, UniProt P01903+Q30154). The settings on record: DRB5 *0101.
A further experiment has as its target HLA-DR DRB1*0101 (DR1) (Homo sapiens, UniProt P01903+P01911, A100R/D57E/F55L/F60I/F76Y/I96L/L162R/M171V/P40L/Q125E/R42F/V115G/Y59C). The settings on record: DRB1 *0101.
The target in a further experiment is HLA-DR DRB1*1302 (DR13) (Homo sapiens, UniProt P01903+P01911, A100E/A169T/K41T/L162R/M171V/P40S/Q125H/Q178H/Q39Y/Q99D/R42S/S66N/T262R/V115G/W38E/Y61H). The settings on record: DRBI *1302.
Sequence of HLA-DR DRB1*1302 (DR13) (P01903 26-254 limits assumed, other chains not shown): as above
In the next experiment the target is HLA-DR DRB4*0101 (DR53) (Homo sapiens, UniProt P01903+P13762, G164S). As to conditions: DRB4 *0101.
For another experiment, the target named is HLA-DR DRB1*0401 (DR4) (Homo sapiens, UniProt P01903+P01911, A100K/A169T/F76Y/I96L/K127E/L162R/M171V/N62H/P40V/Q125Y/R42H/S133A/S149N/S66Y/V115G/V209L/W38E). As to conditions: DRB1 *0401.
The target in another experiment is HLA-DR DRB1*1501 (DR15) (Homo sapiens, UniProt P01903+P01911). As to conditions: DRBI *1501.

Sequence of HLA-DR DRB1*0301 (DR3) (P01903 26-254 limits assumed, other chains not shown): as above

For `CC[C@H](C)[C@H](NC(=O)[C@H](Cc1c[nH]cn1)NC(=O)[C@H](CCSC)NC(=O)[C@H](CCCCN)NC(=O)[C@@H](NC(=O)[C@H](CCCCN)NC(=O)[C@H](CCC(N)=O)NC(=O)[C@@H](NC(=O)[C@H](CO)NC(=O)[C@H](Cc1ccccc1)NC(=O)[C@H](CC(N)=O)NC(=O)CNC(=O)[C@@H](N)[C@@H](C)O)[C@@H](C)O)C(C)C)C(=O)N[C@@H](Cc1c[nH]cn1)C(=O)N[C@@H](CO)C(=O)O`, the IC50 against HLA-DR DRB1*1101 (DR11) was 11.9 µM; on HLA-DR DRB1*0701 (DR7), 9.41 µM; against HLA-DR DRB1*0901 (DR9), 1.45 µM; on HLA-DR DRB5*0101 (DR51) it was 1.93 µM; at HLA-DR DRB1*0101 (DR1) it was 11.2 µM; at HLA-DR DRB3*0101 (DR52) it was over 11.8 µM. For the same compound, the IC50 at HLA-DR DRB1*1302 (DR13) worked out at 6.19 µM; against HLA-DR DRB4*0101 (DR53) it was 0.508 µM.
As for `CC[C@H](C)[C@H](NC(=O)[C@H](Cc1c[nH]c2ccccc12)NC(=O)[C@@H](NC(=O)[C@@H](N)C(C)C)[C@@H](C)O)C(=O)NCC(=O)N[C@@H](C)C(=O)N[C@@H](C)C(=O)N1CCC[C@H]1C(=O)N[C@@H](CC(C)C)C(=O)N[C@H](C(=O)N[C@@H](CC(C)C)C(=O)N[C@@H](CO)C(=O)N[C@@H](CCCNC(=N)N)C(=O)N[C@H](C(=O)N[C@H](C(=O)O)C(C)C)[C@@H](C)CC)[C@@H](C)CC`, the IC50 was 1.78 µM against HLA-DR DRB1*1101 (DR11); 8 µM against HLA-DR DRB1*0401 (DR4); 0.195 µM against HLA-DR DRB1*0701 (DR7); 0.082 µM on HLA-DR DRB1*0901 (DR9); 0.0081 µM against HLA-DR DRB1*0101 (DR1); over 81.8 µM on HLA-DR DRB1*0301 (DR3). For the same compound, the results for the IC50 against HLA-DR DRB3*0101 (DR52), against HLA-DR DRB1*1302 (DR13) and at HLA-DR DRB4*0101 (DR53) were over 10.7 µM, 2.34 µM and 0.088 µM, respectively.
Regarding ADKIYSISMKHPQEM, the concentration for half-maximal inhibition (IC50) at HLA-DR DRB1*1501 (DR15) is 8.27 µM; against HLA-DR DRB1*0401 (DR4), 5.31 µM; against HLA-DR DRB1*0701 (DR7) it was 4.1 µM; at HLA-DR DRB1*0802 (DR8), 1.14 µM; at HLA-DR DRB3*0101 (DR52), over 21.9 µM; against HLA-DR DRB1*1302 (DR13), 4.96 µM. For the same compound, inhibition at HLA-DR DRB4*0101 (DR53) was half-maximal at 3.55 µM (IC50).
On to `CC[C@H](C)[C@H](NC(=O)CNC(=O)[C@H](Cc1ccc(O)cc1)NC(=O)[C@H](CC(C)C)NC(=O)[C@H](CO)NC(=O)[C@H](CC(C)C)NC(=O)[C@H](CC(C)C)NC(=O)[C@H](CO)NC(=O)[C@H](CC(C)C)NC(=O)[C@H](CCC(=O)O)NC(=O)[C@H](CO)NC(=O)[C@@H](N)CC(C)C)C(=O)N[C@@H](Cc1c[nH]cn1)C(=O)N[C@@H](CCCCN)C(=O)N[C@@H](CCC(N)=O)C(=O)O`, for which the concentration for half-maximal inhibition (IC50) against HLA-DR DRB1*1101 (DR11) amounted to 1.66 µM; against HLA-DR DRB1*1501 (DR15), 0.045 µM; at HLA-DR DRB1*0401 (DR4) it was 1.55 µM; against HLA-DR DRB1*0701 (DR7), 20.9 µM; on HLA-DR DRB1*0901 (DR9), 1.45 µM; at HLA-DR DRB5*0101 (DR51), 0.0073 µM. Moreover, the IC50 is 0.482 µM against HLA-DR DRB1*0101 (DR1), over 81.8 µM against HLA-DR DRB1*0301 (DR3), over 13 µM against HLA-DR DRB3*0101 (DR52) and 0.079 µM against HLA-DR DRB4*0101 (DR53).
With `CC[C@H](C)[C@H](NC(=O)[C@H](CC(N)=O)NC(=O)[C@H](CCC(=O)O)NC(=O)[C@H](C)NC(=O)[C@H](CCCCN)NC(=O)[C@H](CC(C)C)NC(=O)[C@H](CCC(=O)O)NC(=O)[C@H](CC(=O)O)NC(=O)[C@@H](N)CC(C)C)C(=O)N[C@@H](CCCCN)C(=O)N[C@@H](CCCCN)C(=O)N[C@@H](Cc1ccccc1)C(=O)N[C@@H](CC(C)C)C(=O)N[C@@H](Cc1ccc(O)cc1)C(=O)N[C@@H](CC(N)=O)C(=O)O`, the 50% inhibitory concentration (IC50) at HLA-DR DRB1*1101 (DR11) was 0.324 µM; against HLA-DR DRB1*0401 (DR4), 4.84 µM; on HLA-DR DRB1*0701 (DR7), 7.47 µM; on HLA-DR DRB1*0901 (DR9) it was 12.8 µM; against HLA-DR DRB5*0101 (DR51), 0.15 µM; at HLA-DR DRB1*0101 (DR1), 1.14 µM. Moreover, the IC50 is 0.548 µM against HLA-DR DRB3*0101 (DR52) and 0.788 µM at HLA-DR DRB4*0101 (DR53).

Source of the values: patent US20060079453A1, “Hla binding peptides and their uses” (priority 2002, published 2006).
